The Kd is the concentration at which binding is half-saturated. Low readings indicate a tighter complex, high ones a looser complex.

The nature of experiment [1]: Binding affinity to human galectin4N by fluorescence polarization assay. In general terms: Fluorescence polarisation rises when a labelled molecule tumbles more slowly, as on binding a larger partner.
A short description of experiment [2]: Binding affinity to human galectin9N by fluorescence polarization assay.
The nature of experiment [3]: Binding affinity to human galectin8N by fluorescence polarization assay.
The next experiment has as its target T1, Galectin-2 (Homo sapiens, UniProt P05162).
T1 sequence (P05162 whole entry): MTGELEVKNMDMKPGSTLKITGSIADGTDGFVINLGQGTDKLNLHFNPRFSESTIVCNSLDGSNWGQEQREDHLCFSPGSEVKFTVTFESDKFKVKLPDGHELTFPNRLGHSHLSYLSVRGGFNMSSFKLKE
Nature of the experiment: Binding affinity to human galectin2 by fluorescence polarization assay.

Experiment [4] in a line: Binding affinity to human galectin4C by fluorescence polarization assay.
The next experiment concerns the target Galectin-3 (Homo sapiens, UniProt P17931). As to the kind of experiment: Binding affinity to human galectin3 by fluorescence polarization assay.
The target of another experiment is Galectin-1 (Homo sapiens, UniProt P09382). As to the kind of experiment: Binding affinity to human galectin1 by fluorescence polarization assay.
Galectin-1, sequence (P09382 whole entry): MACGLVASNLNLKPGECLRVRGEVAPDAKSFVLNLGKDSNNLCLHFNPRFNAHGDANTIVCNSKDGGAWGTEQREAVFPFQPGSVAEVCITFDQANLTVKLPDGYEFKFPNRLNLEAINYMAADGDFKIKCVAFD

Galectin-3, sequence (P17931 whole entry): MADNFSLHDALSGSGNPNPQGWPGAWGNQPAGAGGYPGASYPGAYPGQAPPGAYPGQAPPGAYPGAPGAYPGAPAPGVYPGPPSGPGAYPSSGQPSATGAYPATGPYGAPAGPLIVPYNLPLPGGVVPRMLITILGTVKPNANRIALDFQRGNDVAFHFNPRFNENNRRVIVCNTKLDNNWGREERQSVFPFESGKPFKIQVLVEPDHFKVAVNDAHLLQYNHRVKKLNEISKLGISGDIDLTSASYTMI

Regarding `CO[C@@H]1O[C@H](CO)[C@H](O)[C@H](O)[C@H]1O`, the Kd in experiment [1] is 6.6 mM; in experiment [2] it was 1.2 mM; in experiment [3] it was 6.3 mM; on Galectin-2 it was 13 mM; in experiment [4] it was over 10 mM.

With `CO[C@@H]1O[C@H](CO)[C@H](O)[C@H](O)[C@@H]1O`, the Kd in experiment [1] was over 10 mM; in experiment [2], 4.6 mM; in experiment [3], 1.5 mM; at Galectin-2, over 10 mM; in experiment [4], 10 mM.

As for `CO[C@@H]1O[C@H](CO)[C@H](O)[C@H](OC(=O)c2ccc(C)cc2)[C@@H]1O`, the Kd in experiment [1] was over 4 mM; in experiment [2], over 4 mM; on Galectin-3 it was 1.4 mM; at Galectin-1 it was 2 mM; in experiment [3], 0.4 mM.

As for `CO[C@@H]1O[C@H](CO)[C@H](O)[C@H](OC(=O)c2ccc(C)cc2)[C@@H]1OP(=O)(O)OC`, the Kd is over 4 mM in experiment [1]; over 4 mM in experiment [2]; 0.6 mM on Galectin-3; over 4 mM on Galectin-1; 1 mM in experiment [3]; over 4 mM at Galectin-2. This compound also yielded a dissociation constant Kd in experiment [4] of over 4 mM.

In the case of `CO[C@@H]1O[C@H](CO)[C@H](O)[C@H](OC(=O)c2ccc(C)cc2)[C@@H]1O[PH](=O)O`, the Kd in experiment [1] was over 4 mM; in experiment [2], over 4 mM; on Galectin-3, 2.3 mM; at Galectin-1, over 4 mM; at Galectin-2, 1.5 mM; in experiment [4], over 4 mM.

For the compound `CO[C@@H]1O[C@H](CO)[C@H](O)[C@H](OC(=O)c2ccc(C)cc2)[C@@H]1OC(C)=O`, the Kd is over 4 mM in experiment [1]; over 4 mM in experiment [2]; 0.55 mM on Galectin-3; over 4 mM on Galectin-1; over 4 mM in experiment [3]; over 4 mM at Galectin-2. The same compound came in with a Kd in experiment [4] of 1.6 mM.

With `CO[C@@H]1O[C@H](CO)[C@H](O)[C@H](OC(=O)c2ccc(C)cc2)[C@@H]1OC(=O)c1ccc(C)cc1`, the Kd was over 4 mM in experiment [1]; over 4 mM in experiment [2]; 0.7 mM on Galectin-3; 1.8 mM on Galectin-1; 3.6 mM in experiment [3]; over 4 mM at Galectin-2. Besides, in experiment [4], binding was characterised by a dissociation constant (Kd) of 0.16 mM.

Consider `CO[C@@H]1O[C@H](CO)[C@H](O)[C@H](OC(=O)c2ccc(C)cc2)[C@@H]1OS(=O)(=O)O`, for which the Kd in experiment [1] was over 4 mM; in experiment [2], over 4 mM; on Galectin-3 it was 0.25 mM; on Galectin-1, over 4 mM; in experiment [3], 1.1 mM; at Galectin-2 it was over 4 mM. Moreover, the Kd in experiment [4] is 3 mM.

The record behind these values is ChEMBL document CHEMBL1157484, “Protein subtype-targeting through ligand epimerization: talose-selectivity of galectin-4 and galectin-8” (Bioorg Med Chem Lett, 2008).
